For one assay, the system named is KB cells. The experiment in a line: Test for inhibiting multiplication/growth of KB cells (in vitro). In kind it is cell-based, Human. As to conditions: compound added Day 1, cells counted Day 4, 37° C., 5% CO2, 50% inhibition rate, 4320 min. The procedure: 1) Function for Inhibiting Multiplication of KB-1 Cell (in vitro test)
KB cells, carcinomatous cell tumors, were transferred to in vitro floatation incubator systems, and added respectively with the Compounds (1), (2) and (3). The results of cultivation added with the Compounds (1), (2) and (3) were compared with the result of the control which was not added with any compound.
Cell used: KB Cell (Originating from Human Mouth Epidermal Cancer),
Culture medium: Eagles Minimal Essential Medium supplemented with 10% Calf Serum,
Cultivation: 37° C. Carbon dioxide Gas incubator (5% CO2).
KB cells were diluted in the culture medium to adjust the KB cell density to 2 x 10^4 /ml.
Three ml of the cell suspension was inoculated in each of 60 mm plastic dishes.
Two dishes per standard dosage were used.
Test compound was added to the medium so that the final concentrations were set to 100, 30, 10, 3 and 1 μg/ml.
Cells were scraped off from the dish using trypsin, and the cell number was countered using a Corter counter.
In general accordance with the stipulations set forth by the National Cancer Institute (NCI), U.S.A., the concentration of compound necessary for exerting 50% growth inhibition (ED50) compared to the control was determined.

For the next assay, the system named is P-388. As to the kind of experiment: Prolongation of life span in P-388 cancer implanted mouse (in vivo). Further details: species or system CDF Mouse. The settings on record: Day 1 and Day 5, P-388 inoculated i.p., 10^6 cells/mouse. The procedure: Effect on Prolongation of Life Span in Cancer implanted Mouse and Acute Toxicity
Pharmacological effects of the compounds as used in Test Example 1 were tested in vivo using P-388 implanted mice.
Animal Used: CDF Mouse (6 mice/group),
Number of Inowlated Cells: 10^6 cells/mouse,
Day of Administration: Day 1 and Day 5,
Dosage: LD50 or 400 mg/kg/day at the maximum.
The treatment was judged as effective when the ratio of survival of the treated group to that of the control group (T/C %) was 120% or more. The survival period of the control group was generally about 10 days.

For assay [1] the following is noted: J. Med. Chem., vol. 17, 922 (1974); among acridines with the 9-position alkylamino group replaced; cited from earlier work.

Turning to `COc1cc(NS(C)(=O)=O)ccc1Nc1c2ccccc2nc2cc3ccccc3cc12` [Compound 2, N-(4-((benzo(b)acridine-12yl)amino)-3-methoxyphenyl)methanesulfonamide], the “ED50: concentration of compound necessary for exerting 50% growth inhibition compared to the control (Concentration at Inhibition Rate 50%)” value in the assay with KB cells came out at 1.15 µg/mL. The “Ratio of Life Prolongation (T/C %)” value with P-388 (100 mg/kg) was found to be 122%; with P-388 (200 mg/kg), 130%; in the assay with P-388 (400 mg/kg) it was 130%.

`COc1cc(NS(C)(=O)=O)ccc1Nc1c2ccccc2nc2c1ccc1ccccc12` [Compound 3]: the “Ratio of Life Prolongation (T/C %)” value is on record as 157% with P-388 (50 mg/kg), 163% in the assay with P-388 (100 mg/kg) and 204% in the assay on P-388 (200 mg/kg).

On to `COc1cc(NS(C)(=O)=O)ccc1Nc1c2ccccc2nc2c1[nH]c1ccccc12` [Compound 1], for which the “ED50: concentration of compound necessary for exerting 50% growth inhibition compared to the control (Concentration at Inhibition Rate 50%)” value with KB cells was found to be 0.3 µg/mL. For the same compound, the “Ratio of Life Prolongation (T/C %)” value was 300% with P-388 (6.25 mg/kg), 203% in the assay with P-388 (12.5 mg/kg) and 111% in the assay with P-388 (25 mg/kg).

Take `COc1cc(NS(C)(=O)=O)ccc1Nc1c2ccccc2nc2ccccc12` [Amsacrine, N-(4-(9-acridylamino)-3-methoxyphenyl)methanesulfonamide]: the carcinostatic function entry in assay [1] is recorded as “highest carcinostatiac function”.

(Values after patent publication US5128345A, “Carcinostatic composition comprising indolquinolines” (Mect Corporation, priority 1988, dated 1992).)
